Literature values as cited in paper PMC4807944 (International Journal of Nanomedicine, 2016).

In the case of `C=CC[C@@H]1/C=C(\C)C[C@H](C)C[C@H](OC)[C@H]2O[C@@](O)(C(=O)C(=O)N3CCCC[C@H]3C(=O)O[C@H](/C(C)=C/[C@@H]3CC[C@@H](O)[C@H](OC)C3)[C@H](C)[C@@H](O)CC1=O)[C@H](C)C[C@@H]2OC` [FK506, Tacrolimus], the Aqueous solubility is given as 1 to 2 µg/mL.
